Legend:
Assay type in all cases: in vivo, BALB/c mice
EMT-6 mammary carcinomas [1] = test: Boron biodistribution in mice with EMT-6 tumors of the dorsal thorax (Example 2); conditions: 186 μg CuTCPBr/g body weight total, 6 ip injections over 2 days; 4 days after last injection
Method: Five BALB/c mice bearing subcutaneously implanted EMT-6 mammary carcinomas on the dorsal thorax were given a total dose of 186 μg CuTCPBr/g body weight in 6 intraperitoneal (ip) injections over a period of 2 days. Four days after the last injection mice were euthanized and the average boron concentrations (μg/g wet tissue) were measured for different types of tissue.

EMT-6 mammary carcinomas [2] = test: Biodistribution study of CuTCPBr in mice with EMT-6 mammary carcinomas on the back (Example 5); conditions: for Boron Concentration, Tumor / Boron Concentration, Blood / Boron Concentration, Brain / Boron Concentration, Ears (skin) / Boron Concentration, Liver / Boron Concentration, Spleen / Boron Concentration, Tongue: 6 ip injections over 2 days
Method: Two groups of seven (7) BALB/c mice bearing EMT-6 mammary carcinomas on the back were given CuTCPBr at a dose of 432 μg/g body weight (94 μg B/gbw) in six intraperitoneal injections over two days. Two days after the last injection, the mice in one group were euthanized and the boron concentrations in various tissues were measured. Four days after the last injection, the same procedure was carried out on the second group of mice. The average boron concentrations (mean with standard deviation in parentheses) for the two groups of mice injected with CuTCPBr are listed in the second and third columns of Table 4.
The tumor to blood boron concentration ratio after two days was approximately 8:1 and after four days it increased to 232:1. The tumor to brain boron concentration ratio after two days was approximately 197:1 and after four days it increased to 225:1.

EMT-6 mammary tumors = test: Radiosensitizer study: tumor control with 100 kVp x-irradiation (Example 8); conditions: for % tumor control: 89 days observation
Source text: In this example, female BALB/c mice (Taconic Farms, Germantown, N.Y.) (20-25 g) were used in radiotherapy studies to compare tumor control effects in mice bearing EMT-6 mammary tumors. The EMT-6 leg tumors were formed by mincing freshly removed tumor tissue from mice into fragments no larger than 0.5 mm. The fragments were mixed in a saline solution and implanted subcutaneously (sc) in the legs of mice using an 18-gauge trocar. Tumor fragments were used because in this particular location tumors initiated by cell suspensions tend to spread in a thin subcutaneous layer and invade the subjacent muscle. Using tumor fragments, the tumors are palpable, but thinner on the leg than on the dorsal thorax. In late stage, fragment-initiated tumors can invade muscle tissue but not as frequently as do suspension-initiated tumors.
At approximately seven days after tumor implantation, the mice were stratified by tumor volume into six (6) matched experimental groups, which included five groups of twelve (12) mice each and a control group of thirty-three (33). Two groups were treated with ≈400 μg/g body weight CuTCPBr and given two doses of 100 kVp x-irradiation x-rays, two groups were treated with only two doses of 100 kVp x-irradiation, one group received CuTCPBr and were euthanized the day of irradiation. The function of the group which was immediately euthanized was to determine the boron concentration in tissues at the time of irradiation. It was not a control group upon which the effectiveness of treatment was compared. The control group of thirty-three mice was not treated at all.
In all treated groups, single-exposure irradiations were used. For the irradiation procedures, mice were anesthetized with sodium pentobarbital (≈60 μg/gbw i.p.). Each mouse was anesthetized and positioned behind a 1-cm thick lead shield with the tumor-bearing leg extended across a 2-cm aperture in the lead shield in a manner similar to that used in thermal beam irradiation. […]
Tumor volumes ranged from approximately 20-170 mm^3 in each of the five groups of treated mice. Tumor dimensions were measured 2-3 times per week and mice were euthanized either when calculated tumor volumes (x^2y/2, where x is the shorter surface dimension) exceeded 500 mm^3 or when skin ulceration was observed. Mice were weighed when the tumors were measured, except during the first week, when they were weighed daily. […]
Mice were euthanized at various time points due to tumor overgrowth. The effectiveness of the treatments was measured by the “% tumor control.” The % tumor control is defined as the number of mice whose tumors were “cured” divided by the total number of mice in a particular dose group. […]

[3] = CuTCPBr 432 μg/g body weight, after 2 days
[4] = CuTCPBr 432 μg/g body weight, after 4 days

## copper octabromotetracarboranylphenylporphyrin [CuTCPBr]
EMT-6 mammary carcinomas [1]
  Boron Concentration, Blood: 0.6 ± 0.2 μg B/g wet tissue
  Boron Concentration, Brain: 0.5 ± 0.1 μg B/g wet tissue
  Boron Concentration, Liver: 272 ± 93 μg B/g wet tissue
  Boron Concentration, Tumor: 84 ± 15 μg B/g wet tissue
EMT-6 mammary carcinomas [2]; CuTCPBr 432 μg/g body weight (94 μg B/gbw), after 2 days
  Boron Concentration, Tumor: 256 (51) μg/g
EMT-6 mammary carcinomas [2]; [3]
  Boron Concentration, Blood: 30 (12) μg/g
  Boron Concentration, Brain: 1.3 (0.4) μg/g
  Boron Concentration, Ears (skin): 16 (4.3) μg/g
  Boron Concentration, Liver: 831 (102) μg/g
  Boron Concentration, Spleen: 507 (60) μg/g
  Boron Concentration, Tongue: 43 (4.1) μg/g
EMT-6 mammary carcinomas [2]; [4]
  Boron Concentration, Blood: 0.8 (0.2) μg/g
  Boron Concentration, Brain: 0.7 (0.1) μg/g
  Boron Concentration, Ears (skin): 12 (1.6) μg/g
  Boron Concentration, Liver: 592 (24) μg/g
  Boron Concentration, Spleen: 336 (40) μg/g
  Boron Concentration, Tongue: 37 (4.0) μg/g
  Boron Concentration, Tumor: 180 (27) μg/g
EMT-6 mammary carcinomas [2]; CuTCPBr 432 μg/g body weight, indicates faster clearance time
  decrease of liver boron from two to four days: 29%
EMT-6 mammary tumors; CuTCPBr in combination with x-irradiation
  dose modification factor: > 1.5
EMT-6 mammary tumors; single dose x-irradiation in the presence of CuTCPBr
  radiosensitizing effect: clear radiosensitizing effect
EMT-6 mammary tumors; ≈400 μg/g CuTCPBr plus single-dose 25 Gy 100 kVp x-rays, x-rays alone 25.0%
  % tumor control: 41.7%
EMT-6 mammary tumors; ≈400 μg/g CuTCPBr plus single-dose 35 Gy 100 kVp x-rays, x-rays alone 33.3%
  % tumor control: 66.7%
